Converted amounts (≈) assume the structure as drawn.
Experiments:
PC 12 cell lines = assay: Radiation protection in vitro (CCK-8); type: cell-based, rat; details: for Cell viability / viability at 5 µM / viability at 10 µM / viability at 20 µM: radiation 8.0 Gy, PC 12, radiation group 50.22 ± 1.08; for Cell viability: in % (unit assumed); for radiation protection capability compared with curcumin / radiation protection capacity: 10 μM; for radiation protection capability compared with curcumin: irradiated PC 12; for radiation protection capacity: versus radiation group; for viability at 5 µM / viability at 10 µM / viability at 20 µM: Rattus norvegicus; for viability at 5 µM: PC-12, Dose 5 μM; for viability at 10 µM: PC-12, Dose 10 μM; for viability at 20 µM: PC-12, Dose 20 μM
Protocol: The rat adrenal pheochromocytoma cells (PC 12) were used for in vitro studies. A Cell Counting Kit-8 (CCK-8, Applygen Technologies Co., Ltd., Beijing, China) assay was used to determine cell viability. […] Cells were irradiated with dose of 8.0 Gy at a dose rate of 0.8 Gy/min. Then, 10 μL CCK-8 solution was added to all the wells. After 4 h incubation, the absorbance at 450 nm of each well was measured in a multiscan photometer.

[1] = system: LPS-stimulated RAW264.7 cell lines; assay: LPS-induced NO production (Griess) in RAW264.7; type: cell-based, murine; details: for The production of NO / inhibition at 10 µM: LPS-stimulated RAW264.7; for The production of NO: LPS group 49.86 ± 0.62, control 1.20 ± 0.38; for inhibitory activity against NO production compared with curcumin: 10 μM; for inhibition at 10 µM: Mus musculus, read-out: inhibition rate (anti-inflammatory activity)
Protocol: RAW 264.7 cells were plated in 96-well plates at a density of 1 × 10^4 cells/well and incubated overnight at 37 °C under 5% CO2. […] Dexamethasone (Solarbio, D8040, Beijing, China) was used as the positive control. Then, 24 h later, NO production was determined by measuring the nitrite content using Griess reagents. Fifty microliters of culture supernatants were transferred to 96-well plates and mixed with 50 μL Griess reagent A. After incubation at room temperature for 5 min, the samples were mixed with an equal volume Griess reagent B for another 5 min. The absorbance of each mixture at 540 nm was measured using a microplate reader.

[2] = system: H2O2-stimulated PC 12 cell lines; assay: Protection against H2O2-induced oxidative damage (CCK-8); type: cell-based, rat; details: for viability at 5 µM / viability at 10 µM / viability at 20 µM: Rattus norvegicus; for viability at 5 µM: PC-12, Dose 5 μM; for viability at 5 µM / viability at 10 µM / viability at 20 µM / Cell viability: H2O2-induced oxidative damage, PC 12, H2O2 group 49.69 ± 1.37, control 100; for viability at 10 µM: PC-12, Dose 10 μM; for viability at 20 µM: PC-12, Dose 20 μM; for Cell viability: in % (unit assumed)
Protocol: PC 12 cells were seeded in 96-well plates at a density of 8000 cells/well and incubated overnight. […] After incubating under the same conditions for 24 h, 10 μL CCK-8 solution was added to each well. After 2 h incubation, the absorbance of each well was measured at 450 nm using a microplated reader (Multiskan MK-3, Thermo, Waltham, MA, USA).

[3] = Aqueous solubility determination by UV spectrophotometer; type: physicochemical; details: water, thermodynamic from solid, saturated solution concentration
Protocol: A UV spectrophotometer was used to test the aqueous solubility of target compounds. Each compound to be tested was prepared into solutions with concentrations of 0.2 M, 0.1 M, 0.05 M, 0.025 M, 0.0125 M, 0.00625 M, and 0.003125 M. The optical density (OD) values of the prepared solutions were measured using an ultraviolet spectrophotometer, and concentration–OD-value standard curves were drawn for each compound to be tested. The saturated solutions of the target compounds were diluted by 5000 times and detected using an ultraviolet spectrophotometer to measure the OD values, respectively. The measured OD values were substituted into the corresponding concentration-OD value standard curve to calculate the diluted concentrations, which were multiplied by 5000 to obtain the saturated solution concentrations of the target compounds.

SMILES | Cell viability (PC 12 cell lines; Dose 5 μM) | Cell viability (PC 12 cell lines; Dose 10 μM) | Cell viability (PC 12 cell lines; Dose 20 μM) | The production of NO ([1]; Dose 5 μM) | The production of NO ([1]; Dose 10 μM) | The production of NO ([1]; Dose 15 μM) | viability at 5 µM [2] [%] | viability at 10 µM [2] [%] | viability at 20 µM [2] [%] | inhibitory activity against NO production compared with curcumin [1] | viability at 5 µM (PC 12 cell lines) [%] | viability at 10 µM (PC 12 cell lines) [%] | viability at 20 µM (PC 12 cell lines) [%] | Cell viability ([2]; Dose 5 μM) | Cell viability ([2]; Dose 10 μM) | Cell viability ([2]; Dose 20 μM) | other results
COc1cc(/C=C/C(=O)CC(=O)/C=C/c2ccc(O)c(Cl)c2)cc(CN(C)C)c1O [Compound 7] | 61.54 ± 2.47 | 63.26 ± 3.00 | 69.98 ± 4.31 | 35.15 ± 2.72 | 18.46 ± 2.34 | 10.47 ± 1.32 | 54.4 ± 1.18 | 61.9 ± 1.29 | 78.2 ± 1.43 | – | – | – | – | – | – | – | –
COc1cc(/C=C/C(=O)CC(=O)/C=C/c2c(C)cc(O)cc2C)cc(CN(C)C)c1O [Compound 13a] | 66.55 ± 2.11 | 75.50 ± 1.73 | 88.50 ± 1.18 | 17.80 ± 2.19 | 9.09 ± 1.21 | 5.58 ± 0.11 | 71.5 ± 2.53 | 77.9 ± 3.02 | 90.2 ± 3.77 | better inhibitory activity | – | – | – | – | – | – | radiation protection capability compared with curcumin (PC 12 cell lines): better radiation protection capability; radiation protection capacity (PC 12 cell lines): a certain degree of radiation protection capacity; solubility [3]: 285 mg/mL (≈ 674 mM)
COc1cc(/C=C/C(=O)CC(=O)/C=C/c2cc(CN(C)C)c(O)c(OC)c2)ccc1O [Compound 15a] | – | – | – | 33.79 ± 2.90 | 17.01 ± 0.60 | 4.71 ± 0.18 | 62.2 ± 2.53 | 72.5 ± 2.02 | 89.22 ± 0.36 | better inhibitory activity | – | – | – | – | – | – | solubility [3]: 284 mg/mL (≈ 667 mM)
COc1cc(/C=C/C(=O)CC(=O)/C=C/c2ccc(O)cc2)cc(CN(C)C)c1O [Compound 10] | – | – | – | 36.66 ± 2.00 | 15.36 ± 2.09 | 4.91 ± 0.77 | – | – | – | better inhibitory activity | 58.4 ± 1.95 | 63.9 ± 2.22 | 79.3 ± 3.13 | 53.53 ± 2.28 | 58.20 ± 1.24 | 77.80 ± 2.65 | inhibition at 10 µM [1]: 71%
COc1cc(/C=C/C(=O)CC(=O)/C=C/c2c(OC)cc(O)cc2OC)cc(CN(C)C)c1O [Compound 14] | – | – | – | 27.84 ± 1.41 | 22.09 ± 0.55 | 9.39 ± 0.34 | – | – | – | – | 53.08 ± 0.34 | 54.4 ± 0.72 | 63.5 ± 1.49 | 59.32 ± 2.89 | 65.73 ± 2.40 | 74.30 ± 1.25 | –
COc1cc(/C=C/C(=O)CC(=O)/C=C/c2ccc(OC)c(OC)c2OC)cc(CN(C)C)c1O [Compound 6] | 58.25 ± 1.05 | 62.18 ± 1.03 | 83.08 ± 6.65 | 27.16 ± 2.73 | 14.67 ± 3.66 | 5.95 ± 0.13 | 56.6 ± 1.66 | 67.8 ± 1.91 | 94.89 ± 0.58 | better inhibitory activity | – | – | – | – | – | – | radiation protection capability compared with curcumin (PC 12 cell lines): better radiation protection capability; radiation protection capacity (PC 12 cell lines): a certain degree of radiation protection capacity
COc1cc(/C=C/C(=O)CC(=O)/C=C/c2c(C)cc(O)cc2C)cc(CN(C)C)c1O [Compound 13] | – | – | – | 26.57 ± 1.74 | 21.53 ± 0.35 | 10.02 ± 0.61 | – | – | – | – | 61.4 ± 1.58 | 67.8 ± 2.32 | 87.38 ± 0.6 | 62.94 ± 0.50 | 69.55 ± 1.06 | 80.61 ± 0.83 | –
COc1cc(/C=C/C(=O)CC(=O)/C=C/c2cc(OC)c(O)c(OC)c2)cc(CN(C)C)c1O [Compound 2] | 50.96 ± 1.31 | 52.89 ± 2.05 | 54.68 ± 1.78 | 43.78 ± 1.52 | 42.04 ± 1.70 | 36.99 ± 1.85 | 55.7 ± 0.79 | 58.2 ± 0.8 | 63.4 ± 1.13 | – | – | – | – | – | – | – | –
COc1cc(/C=C/C(=O)CC(=O)/C=C/c2cc(CN(C)C)c(O)c(OC)c2)ccc1O [Compound 15] | – | – | – | 41.85 ± 1.07 | 28.31 ± 0.33 | 14.00 ± 0.92 | – | – | – | – | 58.6 ± 0.61 | 63.45 ± 0.21 | 77 ± 1.23 | 60.18 ± 1.41 | 71.98 ± 3.71 | 87.82 ± 1.77 | radiation protection capability compared with curcumin (PC 12 cell lines): no statistical difference; inhibition at 10 µM [1]: 44%; anti-oxidant capacity compared with curcumin ([2]; 10 μM, H2O2-stimulated PC 12): no statistical difference
COc1cc(/C=C/C(=O)CC(=O)/C=C/c2ccc(O)cc2C)cc(CN(C)C)c1O [Compound 3] | 49.57 ± 2.70 | 51.85 ± 2.04 | 57.44 ± 1.80 | 39.26 ± 2.12 | 30.62 ± 1.71 | 10.36 ± 3.69 | 64.7 ± 2.69 | 71.7 ± 3.77 | 81.7 ± 2.41 | – | – | – | – | – | – | – | –
COc1cc(O)ccc1/C=C/C(=O)CC(=O)/C=C/c1cc(CN(C)C)c(O)c(OC)c1 [Compound 9] | 56.32 ± 1.77 | 59.94 ± 1.26 | 65.00 ± 1.84 | 42.38 ± 2.73 | 29.76 ± 1.48 | 19.69 ± 0.78 | 53.22 ± 0.26 | 58.53 ± 0.46 | 66.1 ± 1.09 | – | – | – | – | – | – | – | inhibition at 10 µM [1]: 41%
COc1cc(/C=C/C(=O)CC(=O)/C=C/c2cc(C)c(O)cc2C)cc(CN(C)C)c1O [Compound 12] | – | – | – | 32.06 ± 0.58 | 15.78 ± 0.50 | 11.39 ± 1.00 | – | – | – | better inhibitory activity | 56.6 ± 1.03 | 63.1 ± 1.52 | 76.8 ± 1.27 | 60.69 ± 1.53 | 70.31 ± 1.65 | 79.23 ± 1.18 | radiation protection capacity (PC 12 cell lines): a certain degree of radiation protection capacity
COc1cc(/C=C/C(=O)CC(=O)/C=C/c2cc(C)c(O)c(C)c2)cc(CN(C)C)c1O [Compound 8] | 53.58 ± 0.78 | 55.23 ± 1.26 | 78.50 ± 2.59 | 42.90 ± 0.85 | 20.21 ± 1.82 | 5.46 ± 0.34 | 64.6 ± 1.64 | 67.8 ± 2.26 | 81.7 ± 3.21 | – | – | – | – | – | – | – | radiation protection capacity (PC 12 cell lines): a certain degree of radiation protection capacity
COc1cc(/C=C/C(=O)CC(=O)/C=C/c2ccc(O)cc2F)cc(CN(C)C)c1O [Compound 4] | 49.46 ± 1.97 | 51.75 ± 0.40 | 59.56 ± 0.59 | 40.64 ± 1.28 | 29.91 ± 1.78 | 10.48 ± 0.47 | 61.7 ± 2.59 | 71 ± 2.33 | 84.7 ± 2.76 | – | – | – | – | – | – | – | –
